Results: patent US20240051968A1, “METHODS FOR TREATING SPINOCEREBELLAR ATAXIA TYPE 3” (PTC Therapeutics, Inc., priority 2021, published 2024)

How the values were obtained:
[1] = test system: Total ATXN3 (tATXN3) protein; test: Endogenous Total ATXN3 (tATXN3) Protein Assay (MSD immunoassay of cell lysates); format: cell-based; settings: cells incubated with compound 48 h; 7-point concentration curve; MSD detection in cell lysate
Procedure: Endogenous Total ATXN3 (tATXN3) Protein Assay
Meso Scale Discovery (MSD) 96-well or 384-well plates were coated overnight at 4° C. with Ataxin 3 mouse monoclonal antibody (Invitrogen, MA3-082) at a concentration of 0.5 μg/mL in PBS (30 μL per well). Plates were then washed three times with 300 μL wash buffer (0.05% TWEEN®-20, polyethylene glycol sorbitan monolaurate, in PBS) and blocked (Meso Scale Diagnostics, R93BA-1; 5% BSA in PBS) for 2 h at room temperature with rotational shaking and then washed three times with wash buffer.
(§1) Test compounds were serially diluted 3.16-fold in 100% DMSO to generate a 7-point concentration curve. Aliquots of 0.5 μL of diluted compounds were transferred to a 96-well flat bottom plate by a liquid handler. An aliquot of 0.5 μL DMSO was also transferred to separate wells and used as controls. Duplicate samples were set up for each compound concentration and for the DMSO control.
Cells were thawed and incubated in cell culture media (DMEM, 10% FBS, and 1% antibiotic cocktail) for 72 h. Cells were trypsinized, counted, and re-suspended to a concentration of 100,000 cells/mL in cell culture media. A 100 μL aliquot of the cell suspensions were plated at 10,000 cells per well in the compound containing 96 well microtiter plate and incubated for in a cell culture incubator (37° C., 5% CO2, 100% relative humidity). After 48 h, the medium was removed and 50-100 μL of lysis buffer (Meso Scale Diagnostics, R60TX-2) containing 1× halt protease inhibitor cocktail of (Thermo Scientific, Halt™ Protease Inhibitor Cocktail, 78430) per well was added to cells to provide a “cell lysate”. The plate was placed on a shaker at 4° C. for 30 minutes, then stored at −80° C.
Cell lysate samples (25 μL) were transferred to the antibody-coated MSD plate and incubated overnight at 4° C. After removal of the lysates, the plate was washed three times with wash buffer, and 25 μL of Ataxin 3 recombinant rabbit monoclonal antibody (Invitrogen, #702788) secondary antibody (diluted to 0.25 μg/mL in 0.05% TWEEN®-20 in blocking buffer) was added to each well and incubated with shaking for 1-2 h at room temperature. Following incubation with the secondary antibody, the wells were rinsed with wash buffer and then […] Anti Rabbit Antibody Goat SULFO-TAG Labeled (Meso Scale Diagnostics, R32AB-1) detecting antibody (diluted to 0.25 μg/mL in 0.05% TWEEN®-20 in blocking buffer) was added to each well and incubated with shaking for 1 h at room temperature. After rinsing three times with wash buffer, 150 μL of Read Buffer T with surfactant (tris-based buffer containing tripropylamine, Meso Scale Diagnostics, R92TC-1) were added to each empty well, and the plate was imaged on a SI 6000 imager (MSD) according to manufacturers' instructions provided for 96- or 384-well plates.

[2] = test system: ATXN3 pre-mRNA; test: RT-qPCR Assay to Quantify Exon 4 Skipping in ATXN3 pre-mRNA in Cells; format: cell-based; settings: cells incubated with compound 24 h, 7-point concentration curve, GAPDH control
Procedure: as §1, with “RT-qPCR Assay to Quantify Exon 4 Skipping in ATXN3 pre-mRNA in Cells Test” for “Test”
Cells were thawed and incubated in cell culture media (DMEM, 10% FBS, and 1% antibiotic cocktail) for 72 h. Cells were trypsinized, counted, and re-suspended to a concentration of 100,000 cells/mL in cell culture media. A 100 μL aliquot of the cell suspensions were plated at 10,000 cells per well in the compound containing 96 well microtiter plate and incubated for in a cell culture incubator (37° C., 5% CO2, 100% relative humidity).
After 24 h, media was aspirated from the cells and 50 μL of the RCL2 lysis buffer (10 mM Tris-HCL pH 7.4, 150 mM NaCl, 0.33% IGEPAL® CA-630) was added to each well and incubated at room temperature for 1 min. Chilled nuclease free water (50 μL per well) was added and the plates were immediately transferred on ice. After 1 min on ice, plates were frozen at −80° C. overnight.
Preparation of RT-qPCR Reaction Mixture:
An aliquot of 2 μL/well of the cell lysates was transferred using the liquid handler to the Armadillo 384-Well PCR plate containing 8 μL/well of the RT-qPCR reaction mixture that was prepared as detailed above. The plates were then sealed with MicroAmp™ Optical Adhesive Film followed by spinning down for 1 min and placed in the CFX384 thermocycler (BioRad).
The RT-qPCR was carried out at the following temperatures for the indicated time: • Step 1: 48° C. (30 min) • Step 2: 95° C. (10 min) • Step 3: 95° C. (15 sec) • Step 4: 60° C. (1 min); then, repeated Steps 3 and 4 for a total of 40 cycles.
The percent exon 4 skipping was calculated for each dose of compound treatment using Equations 1 and 2.
Data were fit to a dose response curve and the IC50 was interpolated using XLfit® statistical and curve fitting package.
An IC50 value between >2.0 μM and ≤3.0 μM is indicated by one star (*). […] IC50 value between >0.5 μM and ≤1.0 μM is indicated by four stars (****). An IC50 value ≤0.5 μM is indicated by five stars (*****).

SMILES | IC50 [1] [µM] | IC50 [2] [µM] | IC50, exon 4 skipping in ATXN3 pre-mRNA [2]
N[C@@H](COC(F)(F)F)Cc1sc2c(NCc3nccs3)cc(Cl)nc2c1Br [Cpd 64, 2-[(2R)-2-amino-3-(trifluoromethoxy)propyl]-3-bromo-5-chloro-N-[(1,3-thiazol-2-yl)methyl]thieno[3,2-b]pyridin-7-amine] | 0.5 to 1 | 0.5 to 1 | 
Cc1c(C[C@@H](N)CF)sc2c(NCc3cccs3)cc(Cl)nc12 [Cpd 91, 2-[(2R)-2-amino-3-fluoropropyl]-5-chloro-3-methyl-N-[(thiophen-2-yl)methyl]thieno[3,2-b]pyridin-7-amine] | 1 to 1.5 | 2 to 3 | 
Cc1c(C[C@@H](N)CC#N)sc2c(NCc3cccs3)cc(Cl)nc12 [Cpd 105, (3S)-3-amino-4-(5-chloro-3-methyl-7-{[(thiophen-2-yl)methyl]amino}thieno[3,2-b]pyridin-2-yl)butanenitrile] | ≤ 0.5 | ≤ 0.5 | 
N#CC[C@H](N)Cc1sc2c(NCc3cccs3)cc(Cl)nc2c1Cl [Cpd 106, (3S)-3-amino-4-(3,5-dichloro-7-{[(thiophen-2-yl)methyl]amino}thieno[3,2-b]pyridin-2-yl)butanenitrile] | ≤ 0.5 | ≤ 0.5 | 
N[C@H](Cc1sc2c(NCc3cccs3)cc(Cl)nc2c1Br)CC(F)F [Cpd 107, 2-[(2S)-2-amino-4,4-difluorobutyl]-3-bromo-5-chloro-N-[(thiophen-2-yl)methyl]thieno[3,2-b]pyridin-7-amine] | 1 to 1.5 |  | inactive
Cc1c(C[C@@H](N)CS(C)(=O)=O)sc2c(NCc3ccco3)cc(Cl)nc12 [Cpd 108, 2-[(2R)-2-amino-3-(methanesulfonyl)propyl]-5-chloro-N-[(furan-2-yl)methyl]-3-methylthieno[3,2-b]pyridin-7-amine] | ≤ 0.5 | ≤ 0.5 | 
C[C@H](N)Cc1sc2c(NCc3ccco3)cc(Cl)nc2c1C#N [Cpd 109, 2-[(2S)-2-aminopropyl]-5-chloro-7-{[(furan-2-yl)methyl]amino}thieno[3,2-b]pyridine-3-carbonitrile] | ≤ 0.5 | ≤ 0.5 | 
CS(=O)(=O)C[C@H](N)Cc1sc2c(NCc3ccco3)cc(Cl)nc2c1Cl [Cpd 113, 2-[(2R)-2-amino-3-(methanesulfonyl)propyl]-3,5-dichloro-N-[(furan-2-yl)methyl]thieno[3,2-b]pyridin-7-amine] | ≤ 0.5 | ≤ 0.5 | 
CSC[C@H](N)Cc1sc2c(NCc3ccco3)cc(Cl)nc2c1Cl [Cpd 114, 2-[(2R)-2-amino-3-(methylsulfanyl)propyl]-3,5-dichloro-N-[(furan-2-yl)methyl]thieno[3,2-b]pyridin-7-amine] | ≤ 0.5 | ≤ 0.5 | 
Cc1c(C[C@@H](N)C(=O)O)sc2c(NCc3ccco3)cc(Cl)nc12 [Cpd 115, 3-(5-chloro-7-{[(furan-2-yl)methyl]amino}-3-methylthieno[3,2-b]pyridin-2-yl)-D-alanine] | ≤ 0.5 | ≤ 0.5 | 

Further lines, results first:

IC50 [1] [µM] | IC50 [2] [µM] | IC50, exon 4 skipping in ATXN3 pre-mRNA [2] | SMILES
≤ 0.5 | ≤ 0.5 |  | CC[C@H](N)Cc1sc2c(NCc3cccs3)cc(Cl)nc2c1Br [Cpd 73, 2-[(2S)-2-aminobutyl]-3-bromo-5-chloro-N-[(thiophen-2-yl)methyl]thieno[3,2-b]pyridin-7-amine]
≤ 0.5 | ≤ 0.5 |  | N[C@@H](CCF)Cc1sc2c(NCc3cccs3)cc(Cl)nc2c1Br [Cpd 74, 2-[(2S)-2-amino-4-fluorobutyl]-3-bromo-5-chloro-N-[(thiophen-2-yl)methyl]thieno[3,2-b]pyridin-7-amine]
≤ 0.5 | ≤ 0.5 |  | N[C@@H](CF)Cc1sc2c(NCc3cccs3)cc(Cl)nc2c1Br [Cpd 76, 2-[(2R)-2-amino-3-fluoropropyl]-3-bromo-5-chloro-N-[(thiophen-2-yl)methyl]thieno[3,2-b]pyridin-7-amine]
≤ 0.5 | ≤ 0.5 |  | Cc1c(C[C@@H](N)CF)sc2c(NCc3ccco3)cc(Cl)nc12 [Cpd 81, 2-[(2R)-2-amino-3-fluoropropyl]-5-chloro-N-[(furan-2-yl)methyl]-3-methylthieno[3,2-b]pyridin-7-amine]
≤ 0.5 | ≤ 0.5 |  | CC[C@H](N)Cc1sc2c(NCc3cccs3)cc(Cl)nc2c1Cl [Cpd 83, 2-[(2S)-2-aminobutyl]-3,5-dichloro-N-[(thiophen-2-yl)methyl]thieno[3,2-b]pyridin-7-amine]
≤ 0.5 | ≤ 0.5 |  | N[C@@H](CF)Cc1sc2c(NCc3cccs3)cc(Cl)nc2c1Cl [Cpd 84, 2-[(2R)-2-amino-3-fluoropropyl]-3,5-dichloro-N-[(thiophen-2-yl)methyl]thieno[3,2-b]pyridin-7-amine]
≤ 0.5 | ≤ 0.5 |  | Cc1c(C[C@@H](N)CCF)sc2c(NCc3cccs3)cc(Cl)nc12 [Cpd 92, 2-[(2S)-2-amino-4-fluorobutyl]-5-chloro-3-methyl-N-[(thiophen-2-yl)methyl]thieno[3,2-b]pyridin-7-amine]
≤ 0.5 | ≤ 0.5 |  | N[C@@H](CCF)Cc1sc2c(NCc3ccco3)cc(Cl)nc2c1Cl [Cpd 93, 2-[(2S)-2-amino-4-fluorobutyl]-3,5-dichloro-N-[(furan-2-yl)methyl]thieno[3,2-b]pyridin-7-amine]
≤ 0.5 | ≤ 0.5 |  | N[C@@H](CF)Cc1sc2c(NCc3ccco3)cc(Cl)nc2c1Cl [Cpd 94, 2-[(2R)-2-amino-3-fluoropropyl]-3,5-dichloro-N-[(furan-2-yl)methyl]thieno[3,2-b]pyridin-7-amine]
≤ 0.5 | ≤ 0.5 |  | Cc1c(C[C@@H](N)CCF)sc2c(NCc3ccco3)cc(Cl)nc12 [Cpd 95, 2-[(2S)-2-amino-4-fluorobutyl]-5-chloro-N-[(furan-2-yl)methyl]-3-methylthieno[3,2-b]pyridin-7-amine]
≤ 0.5 | ≤ 0.5 |  | N[C@@H](CCF)Cc1sc2c(NCc3ccco3)cc(Cl)nc2c1Br [Cpd 97, 2-[(2S)-2-amino-4-fluorobutyl]-3-bromo-5-chloro-N-[(furan-2-yl)methyl]thieno[3,2-b]pyridin-7-amine]
≤ 0.5 | ≤ 0.5 |  | N#CC[C@H](N)Cc1sc2c(NCc3ccco3)cc(Cl)nc2c1Br [Cpd 103, (3S)-3-amino-4-(3-bromo-5-chloro-7-{[(furan-2-yl)methyl]amino}thieno[3,2-b]pyridin-2-yl)butanenitrile]
≤ 0.5 | ≤ 0.5 |  | CSC[C@H](N)Cc1sc2c(NCc3ccco3)cc(Cl)nc2c1C [Cpd 104, 2-[(2R)-2-amino-3-(methylsulfanyl)propyl]-5-chloro-N-[(furan-2-yl)methyl]-3-methylthieno[3,2-b]pyridin-7-amine]
